Laboratory results as given in a melting point compilation (Tetko et al.; mined from patent text by program, amines drawn as free bases though some values may be those of a salt).

`CCCc1nc2c(N)nc3cc(-c4ccccc4)ccc3c2n1NC(C)C` gave a melting point of 217 to 220 °C. `Cc1ccc(C(=O)C(O)[C@H]2OC[C@@H](n3cc(I)c(=O)n(C(=O)c4ccc(C)cc4)c3=O)O2)cc1` (some centres undefined) showed a melting point of 166 to 168 °C. With `CSc1nc2c(C)cccc2c2c1CCN2c1ccccc1C` the melting point was 111 to 113 °C. `O=C(Cc1ccc(F)cc1F)c1ccc(I)cc1F` showed a melting point of 81 to 82 °C. For `COc1ccc2cc(-c3ccccc3)cc(CCNC(C)=O)c2c1`, the melting point was 135 °C. In the case of `CNC(=O)c1ccc(N2CCN(Cc3cc4c(c(OC)c3)OC(C)C(=O)N4)CC2)cc1` (centres undefined), the melting point is reported as 256 °C. In the case of `NCCCC(F)(F)C(F)(F)C(F)(F)C(F)(F)C(F)(F)C(F)(F)C(F)(F)C(F)(F)C(F)(F)C(F)(F)F`, the melting point is reported as 53 to 55 °C. With `CC(C)NC(=O)c1c(NC(=O)c2cc(C(F)(F)F)nn2-c2ncccc2Cl)c(Br)cc2cn[nH]c12` the melting point was 189 to 190 °C. With `CC(=O)c1ccccc1-c1ccc(C(=O)O)cc1` the melting point was 199 to 201 °C. Work on `CCCCn1c(=O)c(NC(=O)Nc2c(C(C)C)ccc(NC(=O)c3cccnc3)c2C(C)C)c(-c2cccc(OC)c2)c2cccnc21` yielded a melting point of 179 to 180 °C. Work on `CCOC(=O)C(Cl)C(=O)Nc1ccc(Cl)cc1` (centres undefined) yielded a melting point of 104 to 105 °C. `CC(O)CN1CCN(c2cccc3c2OCCO3)CC1` (centres undefined) showed a melting point of 92 °C. Compound `OCC(CO)n1nnnc1S` has a melting point of 138 °C. Work on `CC(=O)Oc1c(C(C)(C)C)cc(CCCO)cc1C(C)(C)C` yielded a melting point of 93 to 95 °C. `CNC(=O)c1ccccc1Nc1nc(Nc2cc3c(cc2OC)CCOC(=O)N3C)ncc1Cl` showed a melting point of 256 to 258 °C. Compound `Cc1cc(=O)n(-c2cc(OC(C)C)c(Cl)cc2F)c(=O)n1C(F)F` has a melting point of 97 to 99 °C. In the case of `CCOC(=O)c1cccc(NC(=O)NC2C(=O)N(CC34CC5CC(CC(C5)C3)C4)c3ccccc3N(c3ccccc3)C2=O)c1` (centres undefined), the melting point is reported as 220 to 221 °C. `NC(=O)c1ccc(N2CCN(Cc3cn4ccccc4n3)CC2)cc1` showed a melting point of 249 to 250 °C. With `O=C(C=Cc1cccc2ccccc12)C=Cc1cccc2ccccc12` the melting point was 128 °C. In the case of `COC(=O)c1cc(OCc2ccccc2)c2nc(C)n(C)c2c1`, the melting point is reported as 166 °C. Compound `NC(=O)C(NCCc1cccs1)c1ccccc1Cl` (centres undefined) has a melting point of 90 to 92 °C. In the case of `CCCCc1nc(Cl)c(CO)n1Cc1ccccc1Cl`, the melting point is reported as 134 to 135 °C. For `Cc1[nH]nc(C(F)(F)F)c1-c1cncc(OC2SCC(O)C(O)C2O)c1` (centres undefined), the melting point was 234 °C. In the case of `CCCCc1nc2cc(Br)cc(C(=O)O)c2n1Cc1ccccc1Cl`, the melting point is reported as 254 to 255 °C. `CCN1CC2OC(C3OCCO3)(C1)c1ccccc12` (centres undefined) gave a melting point of 107 to 108 °C. With `CCOC(=O)COc1ccc([N+](=O)[O-])cc1Cl` the melting point was 73 to 74 °C. For `Cc1ccc(-n2c(-c3sc(Nc4ccccc4)nc3-c3ccccc3)nc3ccccc3c2=O)cc1`, the melting point was 225 to 228 °C. With `OCC1OC(n2cnc3c(NC4CCC(O)C4)ncnc32)C(O)C1O` (centres undefined) the melting point was 208 to 210 °C. For `CCOC(=O)c1cn2c3c(c(-c4ccccc4)ccc3c1=O)OCC2C` (centres undefined), the melting point was 246 °C. Compound `CC(C)(C)OC(=O)NCC(Cl)c1ccsc1` (centres undefined) has a melting point of 63 to 65 °C. `O=C(O)c1ccc2cnc3ccccc3c2c1` showed a melting point of 155 °C. For `CC(O)(COc1ccc(S(=O)(=O)c2ccccc2)cc1)C(F)(F)F` (centres undefined), the melting point was 94 to 96 °C. For `Nc1nc2ccccc2c2c1nc1n2CCCN1`, the melting point was greater than 250 °C. Compound `COc1cnc2sc(S(=O)(=O)Cc3ccccc3)nn2c1=O` has a melting point of 204 to 206 °C. In the case of `C#CCCOC(c1ccccc1)(c1ccccc1)c1ccccc1`, the melting point is reported as 97 to 99 °C. `CC(=O)Nc1ccc(SCCCCNS(=O)(=O)c2ccc(C)cc2)cc1` showed a melting point of 104 to 105 °C. `COc1ccc(-c2ccc(Br)cc2N)cc1` gave a melting point of 128 to 130 °C. `Cc1cc(SCc2ccc(OCc3ccc(C(F)(F)F)cc3)cc2)c2c(c1OCC(=O)O)CCC2` showed a melting point of 165 to 167 °C. `OC1CSC(Oc2cnc(-c3ccncc3)c(Cl)c2)C(O)C1O` (centres undefined) showed a melting point of 226 °C. Work on `O=C(O)C1=CCC2C1C(=O)C2(Cl)Cl` (centres undefined) yielded a melting point of 157 to 160 °C. `CSc1ccc(S(=O)(=O)N2CCCC2=O)cc1` gave a melting point of 123 to 125 °C. Compound `CCCc1ccc(-c2ccc(-c3ccc(F)s3)c(F)c2)cc1` has a melting point of 64 °C. With `CC(C)(NC(=O)CNC(=O)c1ccccc1)c1ccccc1` the melting point was 156 to 157 °C. Compound `Cn1cc2c(nc(NC(=O)Nc3ccc(CC(=O)NCCCOCCOCCOCCCNC(=O)OC(C)(C)C)cc3)n3nc(-c4ccco4)nc23)n1` has a melting point of 151 to 158 °C. With `CC(=O)OC1CC2=CC=C3C4CCC(C(C)CCCC(C)C)C4(C)CCC3C2(C)C(OC(C)=O)C1` (centres undefined) the melting point was 113 to 114 °C. With `Cc1cc(C2=NOC(c3cc(Cl)cc(Cl)c3)(C(F)(F)F)C2)ccc1C(=O)NCc1ccccn1` (centres undefined) the melting point was 131 to 136 °C. For `O=C1NCCN1C1CCC(NCC(O)COc2ccc(OCC3CC3)cc2)CC1` (centres undefined), the melting point was 163 to 165 °C. `C=CCc1cn2c(=O)c(C(=O)OCC)cnc2c2cc(OC)ccc12` showed a melting point of 182 to 186 °C. `Cc1csc(=Nc2ccc(C(C)C(=O)O)c(Cl)c2)n1C` (centres undefined) showed a melting point of 132 to 133 °C. `CN1CCC(C(=O)N(C)c2ccc(C(=O)N3CCCCc4ccccc43)cc2)CC1` gave a melting point of 194 to 197 °C. `O=C1N(Cc2ccc(Cl)s2)c2c(C(F)(F)F)cccc2C12COc1cc3c(cc12)OCO3` (centres undefined) gave a melting point of 165 to 166 °C. In the case of `CCCN(CCC)Cc1cnc(-c2ncn3c2CN(C)C(=O)c2cc(F)ccc2-3)o1`, the melting point is reported as 123 to 125 °C. For `Cn1c(-c2ccccc2)nc2cnc3ccccc3c21`, the melting point was 168 to 170 °C. Compound `COC(=O)c1cccc2oc(SCCN3CCN(CC(=O)Nc4c(C(C)C)cccc4C(C)C)CC3)nc12` has a melting point of 173 to 175 °C. `CC(Cl)(Cl)C(NC(=O)c1ccc(F)cc1)NC(=NC#N)Nc1ccc(Cl)nc1` (centres undefined) gave a melting point of 197 to 198 °C. In the case of `Cc1[nH]cnc1CSCCSC#N`, the melting point is reported as 101 to 103 °C. `Nc1nc(N)nc(CNc2c(Br)cc(Br)cc2Br)n1` showed a melting point of 250 to 251 °C. For `CNC(=O)C(Cc1ccc(Br)cc1)NC(=O)Nc1n[nH]c(=S)s1` (centres undefined), the melting point was 238 to 241 °C. Compound `CCS(=O)(=O)CCC(=O)NNC(=O)N1Cc2ccccc2Oc2ccc(OC)cc21` has a melting point of 187 to 190 °C. For `CC(C)OCC1(C(F)(F)F)c2cc(Cl)ccc2Nc2ncc(Cl)cc21` (centres undefined), the melting point was 137 to 138 °C. `Cc1nc(N2CCN(CC3(C#N)C=CC=CC3)C2=O)sc1C(=O)NCc1ccccc1` (centres undefined) gave a melting point of 176 to 178 °C. Compound `CNC(=O)C(=O)CCCCCCc1csc(-c2ccccc2)n1` has a melting point of 70 to 72 °C. Compound `COc1ccc(O)c(C=O)c1OC` has a melting point of 53 to 54 °C. `Cc1cc(C(=O)O)c2cccc(OCc3ccccc3)c2n1` showed a melting point of 241 °C. For `CCCCn1c(=O)c2cn(S(=O)(=O)CCCCl)nc2n(CCCC)c1=O`, the melting point was 102 to 103 °C. In the case of `Cc1cc(Cn2nc(C(F)(F)F)cc2C(F)(F)F)ccc1N1C(=O)c2cccc(F)c2C1=O`, the melting point is reported as 158 to 159 °C. With `COc1ccc(C(=O)SC)c(O)c1` the melting point was 56 to 57 °C. `CCOC(=O)c1ccc(-c2cnc3c(c2)N(Cc2cc(F)ccc2F)C(=O)CN3)cc1` gave a melting point of 201 to 203 °C. Compound `CN1C(=S)CSC=C1c1ccccc1` has a melting point of 83 to 85 °C. In the case of `CN1CCN(CCCCCC(=O)N2c3ccccc3C(=O)Nc3cccnc32)CC1`, the melting point is reported as 179 to 181 °C. `COc1cccc2c(=O)c3c(O)cc(OCC(O)CCl)cc3oc12` (centres undefined) showed a melting point of 184 °C. In the case of `CCCCCCCCCCCCc1cc(CC(=O)Nc2c(OC)cc(OC)cc2OC)on1`, the melting point is reported as 107 to 109 °C. Compound `NC(=O)c1[nH]c2ccccc2c1-c1ccc(NC(=O)Nc2ccccc2F)cc1` has a melting point of 146 to 148 °C. `CCCc1nc2c(N)nc3cccnc3c2s1` showed a melting point of 135 to 136 °C. Compound `COc1ccc(CC(SC)C(=O)OCc2ccccc2)cc1C(=O)NCc1ccc(C(F)(F)F)cc1` (centres undefined) has a melting point of 77 to 79 °C. With `CC(=CC#N)CN1C(=O)c2ccccc2S1(=O)=O` the melting point was 119 to 121 °C. Compound `NC(=O)CC[C@H](NC(=O)c1ccc(OCc2ccccc2)cc1OCc1ccccc1)C(=O)N1CCN(c2ccccc2)CC1` has a melting point of 157 to 158 °C. With `CCOC(=O)c1cc2cc(F)cnc2n1Cc1ccccc1` the melting point was 74 to 75 °C. `Cc1cc(Nc2ccc(NC(=O)c3ccc(Nc4ccnc5ccc(Cl)cc45)cc3)cc2)nc(N)n1` gave a melting point of 250 to 254 °C. With `O=C(N[C@H]1CC[C@H](CCN2CCN(c3nccc4c3OCC4)CC2)CC1)c1ccc2c(c1)OCO2` the melting point was 214 °C. `O=C1C=C(Oc2ccc(-c3ccccc3)cc2)C(O)O1` (centres undefined) showed a melting point of 192 to 193 °C. `Cc1nnc2ccc(-c3ccc(C(C)(C)C)cc3)nn12` showed a melting point of 142 to 145 °C. Work on `CCC(=O)N1CCC(C(=O)O)CC1` yielded a melting point of 91 to 94 °C. `O=c1oc(-c2ccc(C(F)(F)F)cc2)nn1Cc1cc(Cl)ccc1OP(=O)(O)O` gave a melting point of 173 to 176 °C. Compound `OC1CCCc2nc3ccccc3c(NCc3ccccc3)c21` (centres undefined) has a melting point of 159 °C. For `CC(=NOc1ncc(F)c(N)n1)c1ccccc1`, the melting point was 163 to 165 °C. `O=C(O)CC[C@H](NCC(O)C(O)C(O)C(O)C(=O)O)C(=O)O` (some centres undefined) showed a melting point of 90 °C. Compound `COc1nc(C)cnc1NS(=O)(=O)c1cccnc1-c1ccc(C)cc1` has a melting point of 184 to 185 °C. For `CCCCNC(=O)c1ccc(S(=O)(=O)CCCn2c(CCC)nc3c(N)nc(C)c(C)c32)cc1`, the melting point was 147 to 149 °C. Compound `Cc1cc(Br)c(C)cc1Cl` has a melting point of 60 to 64 °C. With `CCCCCCCCCCCCCCCCCCS(=O)c1cc2ccccc2cc1O` (centres undefined) the melting point was 107 to 108 °C. Work on `Cn1cncc1COCC(O)c1ccc(OCc2ccccc2)cc1` (centres undefined) yielded a melting point of 148 to 150 °C. Compound `CC1CCC(C(C)C)C(OC2C=CC(=O)O2)C1` (centres undefined) has a melting point of 70 to 71 °C. `O[C@@H]1CN=C(c2ccoc2)O[C@H]1c1ccccc1` (racemic) gave a melting point of 160 °C. With `CC(=O)n1cc(/C=C2\N=C(c3ccccc3)OC2=O)c2cc(Cl)cnc21` the melting point was 242 °C. Compound `CCOC(=O)c1c(N2CCC(N(C)C)C2)c2cc(C)ccc2n(Cc2ccccc2)c1=O` (centres undefined) has a melting point greater than 40 °C. Work on `C=CCNc1nc(C2C(=O)Nc3ccc(C#N)cc32)c2cn(C3CCCC3)nc2n1` (centres undefined) yielded a melting point greater than 300 °C. `COc1ccccc1Oc1c(NS(=O)(=O)c2ccc(C(C)(C)C)cc2)nc(CO)nc1OCCOc1ncc(Br)cn1` gave a melting point of 161 to 162 °C. Compound `COC(=O)[C@H]1C[C@H]2C(=O)NCCN2C1` has a melting point of 70 to 74 °C.
